Results on two compounds are retold here after patent US8492441B2, “Dosage regimen of an S1P receptor agonist” (Novartis AG, priority 2008, dated 2013).

Data set [1] relates to subjects. The experiment in a line: Example 1 dose titration study: continuous telemetry of heart rate (daily minimum heart rate, HRmin). The class given is in vivo, human. The procedure: (§1) Increasing doses of Compound A starting at 0.25 mg o.d. and ending at the maximal therapeutic dose of 10 mg o.d. are given to 28 subjects over 12 days as specified in Table 1 below. A placebo group and a positive control group receiving the 10 mg final therapeutic dose are also included in the study (each of 14 subjects).
On Day −1 (baseline), subjects undergo baseline assessments including 24 hour holter monitoring and telemetry assessments. Subjects remain on continuous telemetry, starting before breakfast on Day −1 and proceeding throughout the administration period up to Day 13 (24 hour after the last dose). Over this 13 day duration of continuous heart rate collection for each subject, one heart rate value is obtained every minute (‘minute unit heart rate’), representing the average heart rate value over that minute. The heart rate database for each subject contains approximately […] data points (13 days×24 hr×60 min).
The daily chronotropic effect is defined as the percent decrease in HRmin between two consecutive days. It is calculated on days 1 to 12.
(§2) Cardiac conduction intervals: arrhythmia monitoring includes the frequency and duration of sinus pauses (>2 sec and >3 sec) and atrio-ventricular blocks. Frequency and duration of atrial and ventricular ectopy and sinus rhythm are also recorded. The daily chronotropic effect is defined as the percent decrease in HRmin, (minimum heart rate) between two consecutive days. It is calculated on days 1 to 12.
The variation in daily minimum heart rate, HRmin (minimum of 24 hourly mean heart rates) over the course of the study is shown in FIG. 1.

Data set [2] concerns subjects. Nature of the data set: Example 1 dose titration study: Holter monitoring of ectopies (SVEs, VEs) and pauses >2 secs. The format is in vivo, human. The settings on record: for subjects with total number of SVEs 0-10 / subjects with total number of SVEs 11-20 / subjects with total number of SVEs 21-50 / subjects with total number of SVEs >50 / subjects with total number of VEs 0-5 / subjects with total number of VEs 6-10 / subjects with total number of VEs 11-30 / subjects with total number of VEs >30 / subjects with total number of pauses >2 secs: 0 / subjects with total number of pauses >2 secs: 1 / subjects with total number of pauses >2 secs: >1: any time during the 12-day treatment period. The procedure: as §1
Pharmacodynamic and safety assessments are performed up to 24 hours post last dose. Heart rhythm is assessed via 24 hr continuous holter monitoring on Day −1, Day 1, Day 11 and Day 12. For each dosing for each subject, the drug is administered as closely as practically possible to the time administered on Day −1. Safety assessments includes physical examinations, vital signs and body measurements, 12-lead ECG evaluations, standard clinical laboratory evaluations hematology, blood chemistry, urinalysis, adverse event and serious adverse event monitoring.
24-hour continuous Holter-ECG data are captured via a digital Holter monitor (12-lead, on Days […]), and transferred for interpretation and reporting. Holter monitoring starts approximately at 7:00 and the time of dose administration is regarded as the time “0 hours”. Holter “cuts” are derived from the dataset at 1 hour intervals starting from Day −1 and continuing for 24 hours or the end of the cleaned Holter monitoring dataset.
as §2

Data set [3] deals with healthy subjects. The experiment in a line: Absolute lymphocyte count after multiple daily doses (FIG. 2). The format is in vivo, human. The source says:
Preferred medications comprise medication for patients suffering from chronic longterm diseases, such as autoimmune diseases, e.g. multiple sclerosis, Polymyositis, lupus nephritis, rheumatoid arthritis, inflammatory bowel diseases or psoriasis. In an embodiment of the invention, medications are medications for patients suffering from multiple sclerosis, for example relapse remitting multiple sclerosis (RRMS) or primary progressive multiple sclerosis (PPMS), e.g. for patients suffering from RRMS.

For data set [4], the system named is healthy subjects. The conditions noted are these: administration of 1.25 mg; cited from earlier work.
A further data set has as its system multiple sclerosis. The conditions noted are these: humans; cited from earlier work.
Setting [5] is: 10 mg daily from Day 1 (N = 14).
[6] abbreviates: DT#1 titration 0.25 to 10 mg (N = 14).
[7] abbreviates: DT#2 titration (Fibonacci) 0.25 to 10 mg (N = 14).

Turning to `CCc1cc(/C(C)=N/OCc2ccc(C3CCCCC3)c(C(F)(F)F)c2)ccc1CN1CC(C(=O)O)C1` [Compound A, 1-{4-[1-(4-cyclohexyl-3-trifluoromethyl-benzyloxyimino)-ethyl]-2-ethyl-benzyl}-azetidine-3-carboxylic acid], in the data set on subjects [1] (10 mg treatment group, from Day 1 to Day 2), the “increase in heart rate” value was “approximately 5 BPM”. For the same compound, the “decrease in heart rate” value in the data set on subjects [1] (10 mg treatment group, from Day -1 to Day 1) was “approximately 8 BPM”. Besides, the “further increase in heart rate” value in the data set on subjects [1] (10 mg treatment group, from day 2 to day 4) is “approximately 3 BPM”. For the same compound, in the data set on subjects [1] (both titration groups (DT#1, DT#2), first seven days of the dose titration), the “gradual decrease in heart rate per day” value is recorded as 1-2 BPM per day. Further, in the data set with subjects [1] (both titration groups (DT#1, DT#2), over the first seven days of the dose titration), the “total reduction in heart rate” value was 4-5 BPM. Also, in the data set on subjects [1] (both titration groups, over the next 2-3 days after the first seven days), the “heart rate recovery after day 7” value was “the heart rate increased to approximately the placebo level”. Moreover, the “dip in heart rate on initiation of the 10 mg dose after titration” value in the data set on subjects [1] (titration groups, 10 mg dose initiated on Days 8 and 9, compared to preceding days) is “did not result in a significant dip in heart rate”. Moreover, in the data set with subjects [1] (titration regimen vs Day 1 of 10 mg dose treatment initiation), the “effect of dose titration regimen on negative chronotropic effect” value was “attenuates the negative chronotropic effect”. Further, in the data set with subjects [2] (setting [5]), the “subjects with total number of SVEs 0-10” value is 1 (7.1%) n (%), the “subjects with total number of SVEs 11-20” value is recorded as 2 (14.3%) n (%), the “subjects with total number of SVEs 21-50” value is reported as 5 (35.7%) n (%) and the “subjects with total number of SVEs >50” value is 6 (42.9%) n (%). Further, in the data set with subjects [2] (setting [5]), the “subjects with total number of VEs 0-5” value is on record as 6 (42.9%) n (%), the “subjects with total number of VEs 6-10” value is on record as 4 (28.6%) n (%), the “subjects with total number of VEs 11-30” value is given as 1 (7.1%) n (%) and the “subjects with total number of VEs >30” value is reported as 3 (21.4%) n (%). For the same compound, in the data set on subjects [2] (setting [5]), the “subjects with total number of pauses >2 secs: 0” value (“subjects … of pauses >2 secs: 0” below) is reported as 10 (71.4%) n (%), the “subjects with total number of pauses >2 secs: 1” value (shortened to “subjects … of pauses >2 secs: 1”) is 1 (7.1%) n (%) and the “subjects with total number of pauses >2 secs: >1” value (“subjects with total number … >1” for short) is 3 (21.4%) n (%). Further, in the data set with subjects [2] (setting [6]), the “subjects with total number of SVEs 0-10” value is 1 (7.1%) n (%), the “subjects with total number of SVEs 11-20” value is reported as 3 (21.4%) n (%), the “subjects with total number of SVEs 21-50” value is 2 (14.3%) n (%) and the “subjects with total number of SVEs >50” value is listed as 8 (57.1%) n (%). In the data set with subjects [2] (setting [6]), the “subjects with total number of VEs 0-5” value is on record as 3 (21.4%) n (%), the “subjects with total number of VEs 6-10” value was 5 (35.7%) n (%), the “subjects with total number of VEs 11-30” value is on record as 4 (28.6%) n (%) and the “subjects with total number of VEs >30” value is recorded as 2 (14.3%) n (%). In addition, in the data set with subjects [2] (setting [6]), the “subjects … of pauses >2 secs: 0” value is 10 (71.4%) n (%), the “subjects … of pauses >2 secs: 1” value was 1 (7.1%) n (%) and the “subjects with total number … >1” value is 3 (21.4%) n (%). Further, in the data set on subjects [2] (setting [7]), the “subjects with total number of SVEs 0-10” value was 0 n (%), the “subjects with total number of SVEs 11-20” value is given as 1 (7.1%) n (%), the “subjects with total number of SVEs 21-50” value is 4 (28.6%) n (%) and the “subjects with total number of SVEs >50” value is reported as 9 (64.3%) n (%). Further, in the data set with subjects [2] (setting [7]), the “subjects with total number of VEs 0-5” value was 3 (21.4%) n (%), the “subjects with total number of VEs 6-10” value is reported as 2 (14.3%) n (%), the “subjects with total number of VEs 11-30” value is reported as 5 (35.7%) n (%) and the “subjects with total number of VEs >30” value is recorded as 4 (28.6%) n (%). For the same compound, in the data set on subjects [2] (setting [7]), the “subjects … of pauses >2 secs: 0” value was 13 (92.9%) n (%), the “subjects … of pauses >2 secs: 1” value was 0 n (%) and the “subjects with total number … >1” value is 1 (7.1%) n (%). In addition, the “number of heart pauses greater than 2 seconds, comparison of regimens” value with subjects [2] (second titration regimen DT#2 (Fibonacci sequence) vs the other active treatment regimens) was “lower number of heart pauses greater than 2 seconds”. For the same compound, the “absolute lymphocyte count in the blood” value in the data set with healthy subjects [3] is on record as “reduces the absolute lymphocyte count”.

Take `CCCCCCCCc1ccc(CCC(N)(CO)CO)cc1` [FTY720]: the “decrease in heart rate” value in the data set with healthy subjects [4] was “approximately 8 beats/min (BPM)”. Besides, the “efficacy in the treatment of multiple sclerosis” value with multiple sclerosis is “has been demonstrated in humans”.
